Test results reported in US6107333A (priority 1999, dated 2000).
Entries after “also recorded” stand apart in the source; their conditions may differ. Where two headings read alike, the source gives them in different places.

Key:
erythrocytes = assay: Hemolysis studies in vitro; assay type: cell-based; conditions: drug concentrations up to and exceeding 50 μg/ml; 4 hours at 37° C.
Protocol: The procedure of Parthasarathy et al. was used to examine the hemolytic potential of a few selected preparations and the LD50 values of the most optimal formulation was constructed as described (Parthasarathy et al., 1994). Heparinized blood was mixed with an equal volume of Alsever's solution. […] These mixtures were then incubated for 4 hours at 37° C. At the end of the incubation, the cells were pelleted at 10,000×gin an Eppendorf micro-centrifuge and the release of hemoglobin in the supernatant (ie., hemolysis) was determined spectrophotometrically at 550 nm. Maximum lysis was measured against a reference solution of erythrocytes that had been completely lysed by hypotonic shock. The hemolytic potential of the "optimal" complete formulation was evaluated as described (Parthasarathy et al., 1994) and the data were plotted as the fraction of healthy cells versus 1n (total volume percent). Total volume percent was defined as the volume percent of the vehicle in the mixture after dilution with blood. This was done to simulate the dilution of the respective drug formulation in the blood stream after parenteral administration.

[1] = system: ovarian and mammary carcinomas; conditions: clinical testing; cited from earlier work
[2] = Solubility of paclitaxel in various solvents (HPLC); assay type: physicochemical
Protocol: A known amount of the drug, as a powder (two different aliquots of purified drug were obtained from Xechem Inc. New Brunswick, N.J.), was equilibrated in the respective solvent at RT (22° C.) over 1 hour. An aliquot was then removed and diluted in MeOH prior to HPLC at predetermined times. […] Different solvent systems were evaluated relative to the above estimates of necessary solubility to arrive at a clinically relevant stable stock formulation. This stock formulation would then be diluted with a "final solvent" to yield a complete stable clinical working formulation of 1-5 mg/ml, that could be infused parenterally. The final solvent was selected from one of the commonly utilized parental infusion fluids, NS, 5% dextrose in water or a parenterally acceptable aqueous lipid emulsion (e.g., Intralipid), all of which are readily available and approved for parenteral administration.
An excess of paclitaxel as a powder was added to DMA, DMSO, PEG, and PG at RT. Each mixture was placed in a dark environment and checked visually for up to 1 hour for evidence of solubilization.

[3] = for Stability (in words) / Degradation over first 60 days (in words): 25 mg/ml; for Stability of use-formulation (in words): aqueous lipid emulsion as terminal solvent
Protocol: To study the physical and chemical stability of the various parenteral formulations, 3 sets of studies were performed: […]
The various formulations were analyzed by HPLC immediately after mixing, then hourly for 8 hours, and then at gradually increasing time intervals for more than 10 days, depending on the initial rate of degradation in the respective solvent system.
Different aliquots were stored at 4° C., 22° C., 40° C., and 60° C. […] Immediately after solubilization and at various intervals up to more than 50 days, aliquots from different samples were analyzed by HPLC.

[4] = Paclitaxel plasma concentration after iv injection in rats; assay type: in vivo, male Sprague-Dawley rats; conditions: 3 mg/kg iv
Protocol: For the in vivo study, male Sprague-Dawley rats with a body weight of 250-300 g were used. They were bought from the Harlan-Sprague-Dawley local breeding facility in Houston, Tex. The animals were allowed a minimum of 3-4 days to accommodate to the change of environment after shipping to the MD Anderson Cancer Center. All animals were allowed free access to commercial feed and tap water prior to and during the pharmacological study. The dose of 3 mg/kg was determined as the highest dose that could be given to the rats as a slow iv injection of the Cremophor® EL based preparation without a lethal anaphylactoid reaction in the absence of pharmacological premedication.
This avoided the possible influence of induction of microsomal liver enzymes which could alter drug metabolism/elimination and influence (the later part of) the plasma concentration curve. For the same reason, all animals were unanesthesized and only physically restrained during the drug injection. The drug concentration of the injected use-formulation was confirmed by HPLC prior to use. […] The blood was centrifuged at 1,000×g for 10 min and the plasma was separated and stored at -80° C. until extracted and assayed by HPLC as described above.

Q: With `CC(=O)O[C@H]1C(=O)[C@@]2(C)[C@H]([C@H](OC(=O)c3ccccc3)[C@]3(O)C[C@H](OC(=O)[C@H](O)[C@@H](NC(=O)c4ccccc4)c4ccccc4)C(C)=C1C3(C)C)[C@]1(OC(C)=O)CO[C@@H]1C[C@@H]2O` [Paclitaxel] as the molecule, how does the “Paclitaxel dependent lysis (in words)” value (erythrocytes) read?
A: barely notable above background

Q: What about the “Antitumor activity (in words)” value [1] of the same molecule?
A: impressive activity against ovarian and mammary carcinomas

Q: And the solubility ([2]; 5% dextrose, solvent 5% dextrose, 60 min at room temperature, read-out: Solubility)?
A: < 0.1 mg/mL

Q: And the “Solubility (in words)” value ([2]; PEG-400, PG, NS, Intralipid and 5% dextrose, RT)?
A: did not yield any significant concentrations of solubilized drug

Q: And the solubility ([2]; dma, organic solvent or mixture, solvent DMA, RT, read-out: Solubility)?
A: > 200 mg/mL

Q: What about the solubility ([2]; dmso, organic solvent or mixture, solvent DMSO, RT, read-out: Solubility) of the same molecule?
A: > 100 mg/mL

Q: And the solubility ([2]; intralipid, solvent Intralipid, 60 min at room temperature, read-out: Solubility)?
A: < 0.1 mg/mL

Q: What about the “Solubility (in words)” value ([2]; most of the aqueous solvents) of the same molecule?
A: insoluble in most of the aqueous solvents

Q: What about the solubility ([2]; normal saline, solvent normal saline, 60 min at room temperature, read-out: Solubility) of the same molecule?
A: < 0.1 mg/mL

Q: And the solubility ([2]; peg, organic solvent or mixture, solvent PEG, 60 min at room temperature, read-out: Solubility)?
A: < 0.1 mg/mL

Q: What about the solubility ([2]; propylene glycol, organic solvent or mixture, solvent propylene glycol, 60 min at room temperature, read-out: Solubility) of the same molecule?
A: < 0.1 mg/mL

Q: What about the solubility ([2]; solvent DMA, RT) of the same molecule?
A: > 100 mg/mL

Q: What about the “Time within which significant degradation took place” value [3] of the same molecule?
A: 4 to 6 h

Q: And the “Time without discernible degradation” value [3]?
A: more than 4.5 months

Q: And the “Stability (in words)” value ([3]; room temperature)?
A: stable at 25 mg/ml for several months at room temperature

Q: What about the “Concentration of stable solution” value ([3]; DMA with PEG added (stock solution)) of the same molecule?
A: 25000 µg/mL

Q: What about the “Degradation over first 60 days (in words)” value ([3]; DMA:PEG (1:3, v/v) stock, 4° C.) of the same molecule?
A: did not show any significant degradation

Q: What about the “Stability (in words)” value ([3]; DMA:PEG (1:3, v/v) stock, 4° C., 4.5 months) of the same molecule?
A: overlapping with that recorded for the samples stored at RT

Q: And the “Degradation over first 60 days (in words)” value ([3]; DMA:PEG (1:3, v/v) stock, 40° C.)?
A: did not show any significant degradation

Q: And the “Degradation over first 60 days (in words)” value ([3]; DMA:PEG (1:3, v/v) stock, RT)?
A: did not show any significant degradation

Q: And the “Stability of use-formulation (in words)” value ([3]; 1 mg/ml, 4° C.)?
A: stable at 1 mg/ml and at 5 mg/ml for over one week

Q: And the “Stability of use-formulation (in words)” value ([3]; 1 mg/ml, RT)?
A: stable at 1 mg/ml and at 5 mg/ml for over one week

Q: What about the “Stability of use-formulation (in words)” value ([3]; 5 mg/ml, 4° C.) of the same molecule?
A: stable at 1 mg/ml and at 5 mg/ml for over one week

Q: And the “Stability of use-formulation (in words)” value ([3]; 5 mg/ml, RT)?
A: stable at 1 mg/ml and at 5 mg/ml for over one week

Q: And the “Degradation on storage (in words)” value ([3]; in DMA, >100 mg/ml, RT)?
A: started degrading slowly after storage over night at RT

Q: What about the “Paclitaxel plasma concentrations (in words)” value [4] of the same molecule?
A: clearly cytocidal concentrations of paclitaxel are maintained for many hours; also recorded: clearly reach, and for extended time, remain in the antineoplastic range
